Here are results for one compound from patent publication US10509041B2, “Glucose derivative, and cell imaging method and imaging agent using said derivative” (HIROSAKI UNIVERSITY, priority 2014, dated 2019).

For the test, the system named is mouse insulinoma cells (MIN6). Put plainly: Increase in fluorescence intensity (uptake) after administration of fluorescent glucose derivative to MIN6 cells, influence of cytochalasin B (CB) or phloretin (PHT), fluorescence microplate reader. The note with it: CDG 100 μM, 37° C. 5 minutes; CB 10 μM; MIN6 culture day 13; average, two independent experiments. In kind it is cell-based. Here is the method:
Increase in fluorescence intensity caused by the administration of CDG, and the influence of a glucose transporter (GLUT) inhibitor CB thereon were confirmed by targeting MIN6 cells.
A 96-well clear-bottom plate having wells of 8 rows (A to H) and 12 columns (1 to 12) (μClear-PLATE, Greiner Bio-One, BLACK) was used in measurement. A culture solution containing MIN6 cells suspended at a density of 60×10^4 cells/mL was added dropwise at 10 μL/well to the central portion of the well, and then, the plate was left standing for 40 minutes in an incubator for fixation. The cells were cultured by the addition of a culture solution at 200 μL/well (6000 cells/well). For layout, the cells were seeded to wells B to H on the third column and wells A to G on the fifth column. Medium replacement was performed by replacing half the amount with a fresh one once every two days at 0 to 4 DIV (days in vitro) and every day at 5 DIV or later. […]
CDG and 2-NBDG were each independently administered to the wells on the third and fifth columns using an 8-channel pipette such that these derivatives were alternately placed on the same plate. Before the administration, the autofluorescence of each well was measured in advance using a fluorescence microplate reader (Flex Station, Molecular Devices, LLC). […] The measurement was conducted at Bottom Read, Averaging 3, and Photomultiplier sensitivity high. […]

Structures are written as SMILES. Values joined by “and” are separate entries in the source; they are usually repeats but may differ in a detail not shown here. Identical values can stand only once.

`O=c1ccc2ccc(NC3C(O)OC(CO)[C@@H](O)[C@@H]3O)cc2o1` (stereo partly drawn) [CDG, 2-deoxy-2-(2-oxo-2H-chromen-7-yl)amino-D-glucose]: the “fluorescence intensity in the presence of CB relative to the absence of CB” value is 47.3% and 42.9%.
